This passage reports inhibition results from article PMC6432638 (Science signaling, 2018).

The target in this assay is SMARCA4 (Homo sapiens, UniProt P51532). Description: TR-FRET ligand displacement assay with recombinant bromodomain and BET ligand. The class given is binding. Conditions: read-out: % inhibition at 10 μM. On the technique in general: Time-resolved FRET reads energy transfer from a long-lived donor to a nearby acceptor.

The inhibition is how much of the control response was suppressed.

SMARCA4, sequence (P51532 1453-1564 limits assumed): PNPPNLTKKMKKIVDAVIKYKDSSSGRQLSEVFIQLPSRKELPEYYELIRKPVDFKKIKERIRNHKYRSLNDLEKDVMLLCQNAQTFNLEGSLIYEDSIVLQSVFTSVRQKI

Regarding `O=C(/C=C/N1C[C@H]2C[C@@H]1CN2c1ccccn1)c1ccccc1O` [PFI-3], the inhibition at 10 µM turned out to be 95%.
